According to US20190225650A1, “PEPTIDOMIMETIC MACROCYCLES AND USE THEREOF IN REGULATING HIF1ALPHA” (AILERON THERAPEUTICS, INC., priority 2013, published 2019):
Bridge positions count the residues as written; N and C are the ends. Square brackets hold non-standard residues; d marks the D form. Peptide text beside a SMILES is read from it. S5 = C=CCCC[C@](C)(N)C(=O)O; Nle = CCCC[C@H](N)C(=O)O

Tested on: HRE-bla ME-180 cells
Test: Reporter gene assay (HRE-bla ME-180 HIF reporter, GeneBLAzer)
Assay type: cell-based, human
Conditions: for EC50: 24 hour normoxia
Method in brief: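 A FRET β-lactamase readout of HIF transcription was used. After compound treatment in 0.3% DMSO/media under normoxic conditions, 20 μl of 6× LiveBLAzer-FRET B/G (CCF4-AM) substrate was added. Plates sat 3 hr at room temperature in the dark and were read at 409 Ex/460Em and 409Ex/530Em on a Synergy 2. Inhibition was compared against DMSO vehicle controls, with chetomin as positive control.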

Structure (SMILES) | EC50 | 18 h Avg % max inhibition at top conc (HIF Rptr-24 hrs normoxia) (μM)
CC[C@H](C)[C@H](NC(=O)[C@H](Cc1ccccc1)NC(C)=O)C(=O)N[C@@H](CC(=O)O)C(=O)N[C@@H](CCC(=O)O)C(=O)N[C@@H](CCC(=O)O)C(=O)N[C@H](C(=O)N[C@@H](CC(C)C)C(=O)N[C@@H](C)C(=O)N[C@@]1(C)CCCC=CCCC[C@@](C)(C(=O)N[C@@H](C)C(=O)N[C@@H](C)C(=O)N[C@@H](CC(C)C)C(=O)N[C@@H](CC(=O)O)C(=O)N[C@@H](CCCNC(=N)N)C(N)=O)NC(=O)[C@H]([C@@H](C)CC)NC(=O)[C@H](C(C)C)NC(=O)[C@H](CC(C)C)NC1=O)C(C)C [SP-28] (Ac-FIDEEVLA[S5]LVI[S5]AALDR-NH2; staple 9-13) | 15 to 30 µM | ++++ (≥50: ++++)
CCCC[C@H](NC(=O)[C@H](CC(C)C)NC(=O)[C@@H](NC(=O)[C@H](CCC(=O)O)NC(=O)[C@H](CCC(=O)O)NC(=O)[C@H](CC(=O)O)NC(=O)[C@@H](NC(=O)[C@H](CO)NC(C)=O)[C@@H](C)CC)C(C)C)C(=O)N[C@@]1(C)CCCC=CCCC[C@@](C)(C(=O)N[C@@H](CCCC)C(=O)N[C@@H](C)C(=O)N[C@@H](CC(C)C)C(=O)N[C@@H](CC(=O)O)C(=O)N[C@@H](CCCNC(=N)N)C(=O)N[C@H](C(N)=O)[C@@H](C)CC)NC(=O)[C@H]([C@@H](C)CC)NC(=O)[C@H](C(C)C)NC(=O)[C@H](CC(C)C)NC1=O [SP-44] (Ac-SIDEEVL[Nle][S5]LVI[S5][Nle]ALDRI-NH2; staple 9-13) | 15 to 30 µM | +++ (≤25 but <50: +++)
CC[C@H](C)[C@H](NC(=O)[C@H](CCCNC(=N)N)NC(=O)[C@H](CC(=O)O)NC(=O)[C@H](CC(C)C)NC(=O)CNC(=O)[C@H](CCSC)NC(=O)[C@H](CCC(=O)O)NC(=O)[C@@H](NC(=O)[C@@H](NC(=O)[C@H](CC(C)C)NC(=O)[C@H](CO)NC(=O)[C@]1(C)CCCC=CCCC[C@](C)(NC(=O)[C@H](CC(=O)O)NC(=O)[C@@H](NC(=O)[C@H](Cc2ccccc2)NC(C)=O)[C@@H](C)CC)C(=O)N[C@@H](CCC(=O)O)C(=O)N[C@@H](C(C)C)C(=O)N[C@@H](CC(C)C)C(=O)N1)C(C)C)[C@@H](C)CC)C(=O)N[C@@H](CCCCN)C(=O)N[C@@H](CCC(=O)O)C(=O)N[C@@H](CC(C)C)C(=O)N1CCC[C@H]1C(=O)N[C@@H](CCC(=O)O)C(=O)N[C@@H](CC(C)C)C(=O)N[C@@H](Cc1c[nH]c2ccccc12)C(=O)N[C@@H](CC(C)C)C(N)=O [SP-76] (Ac-FID[S5]EVL[S5]SLVIEMGLDRIKELPELWL-NH2; staple 4-8) | > 30 µM | + (<10: +)
CC[C@H](C)[C@H](NC(=O)[C@H](Cc1ccccc1)NC(C)=O)C(=O)N[C@@H](CC(=O)O)C(=O)N[C@@H](CCC(=O)O)C(=O)N[C@@H](CCC(=O)O)C(=O)N[C@H](C(=O)N[C@@H](CC(C)C)C(=O)N[C@@H](CCSC)C(=O)N[C@@]1(C)CCCC=CCCC[C@@](C)(C(=O)N[C@@H](CCSC)C(=O)N[C@@H](C)C(=O)N[C@@H](CC(C)C)C(=O)N[C@@H](CC(=O)O)C(=O)N[C@@H](CCCNC(=N)N)C(=O)N[C@H](C(=O)N[C@@H](CCCCN)C(=O)N[C@@H](CCC(=O)O)C(=O)N[C@@H](CC(C)C)C(=O)N2CCC[C@H]2C(=O)N[C@@H](CCC(=O)O)C(=O)N[C@@H](CC(C)C)C(=O)N[C@@H](Cc2c[nH]c3ccccc23)C(=O)N[C@@H](CC(C)C)C(N)=O)[C@@H](C)CC)NC(=O)[C@H]([C@@H](C)CC)NC(=O)[C@H](C(C)C)NC(=O)[C@H](CC(C)C)NC1=O)C(C)C [SP-3] (Ac-FIDEEVLM[S5]LVI[S5]MALDRIKELPELWL-NH2; staple 9-13) | > 30 µM | +++ (≤25 but <50: +++)

More lines, main results first:

EC50 | Structure (SMILES) | 18 h Avg % max inhibition at top conc (HIF Rptr-24 hrs normoxia) (μM)
5 to 15 µM | CCCC[C@H](NC(=O)[C@H](CO)NC(=O)[C@@H](NC(=O)[C@H](CCC(=O)O)NC(=O)[C@H](CCC(=O)O)NC(=O)[C@H](CC(=O)O)NC(=O)[C@@H](NC(=O)[C@H](Cc1ccccc1)NC(C)=O)[C@@H](C)CC)C(C)C)C(=O)N[C@@]1(C)CCCC=CCCC[C@@](C)(C(=O)N[C@@H](CCCC)C(=O)N[C@@H](C)C(=O)N[C@@H](CC(C)C)C(=O)N[C@@H](CC(=O)O)C(=O)N[C@@H](CCCNC(=N)N)C(=O)N[C@H](C(N)=O)[C@@H](C)CC)NC(=O)[C@H]([C@@H](C)CC)NC(=O)[C@H](C(C)C)NC(=O)[C@H](CC(C)C)NC1=O [SP-49] (Ac-FIDEEVS[Nle][S5]LVI[S5][Nle]ALDRI-NH2; staple 9-13) | ++++ (≥50: ++++)
≤ 5 µM | CCCC[C@H](NC(=O)[C@]1(C)CCCC=CCCC[C@](C)(NC(=O)[C@H](C)NC(=O)[C@H](CC(C)C)NC(=O)[C@@H](NC(=O)[C@H](CCC(=O)O)NC(=O)[C@H](CCC(=O)O)NC(=O)[C@H](CC(=O)O)NC(=O)[C@@H](NC(=O)[C@H](Cc2ccccc2)NC(C)=O)[C@@H](C)CC)C(C)C)C(=O)N[C@@H](CC(C)C)C(=O)N[C@@H](C(C)C)C(=O)N[C@@H]([C@@H](C)CC)C(=O)N1)C(=O)N[C@@H](C)C(=O)N[C@@H](CC(C)C)C(=O)N[C@@H](CC(=O)O)C(=O)N[C@@H](CCCNC(=N)N)C(=O)N[C@H](C(N)=O)[C@@H](C)CC [SP-16] (Ac-FIDEEVLA[S5]LVI[S5][Nle]ALDRI-NH2; staple 9-13) | ++++ (≥50: ++++)
5 to 15 µM | CCCC[C@H](NC(=O)[C@H](CC(C)C)NC(=O)[C@@H](NC(=O)[C@H](CO)NC(=O)[C@H](CCC(=O)O)NC(=O)[C@H](CC(=O)O)NC(=O)[C@@H](NC(=O)[C@H](Cc1ccccc1)NC(C)=O)[C@@H](C)CC)C(C)C)C(=O)N[C@@]1(C)CCCC=CCCC[C@@](C)(C(=O)N[C@@H](CCCC)C(=O)N[C@@H](C)C(=O)N[C@@H](CC(C)C)C(=O)N[C@@H](CC(=O)O)C(=O)N[C@@H](CCCNC(=N)N)C(=O)N[C@H](C(N)=O)[C@@H](C)CC)NC(=O)[C@H]([C@@H](C)CC)NC(=O)[C@H](C(C)C)NC(=O)[C@H](CC(C)C)NC1=O [SP-47] (Ac-FIDESVL[Nle][S5]LVI[S5][Nle]ALDRI-NH2; staple 9-13) | ++++ (≥50: ++++)
5 to 15 µM | CCCC[C@H](NC(=O)[C@H](CC(C)C)NC(=O)[C@@H](NC(=O)[C@H](CCC(=O)O)NC(=O)[C@H](CCC(=O)O)NC(=O)[C@H](CC(=O)O)NC(=O)[C@@H](NC(=O)[C@H](Cc1ccccc1)NC(C)=O)[C@@H](C)CC)C(C)C)C(=O)N[C@@]1(C)CCCC=CCCC[C@@](C)(C(=O)N[C@@H](CCCC)C(=O)NCC(=O)N[C@@H](CC(C)C)C(=O)N[C@@H](CC(=O)O)C(=O)N[C@@H](CCCNC(=N)N)C(=O)N[C@H](C(N)=O)[C@@H](C)CC)NC(=O)[C@H]([C@@H](C)CC)NC(=O)[C@H](C(C)C)NC(=O)[C@H](CC(C)C)NC1=O [SP-21] (Ac-FIDEEVL[Nle][S5]LVI[S5][Nle]GLDRI-NH2; staple 9-13) | ++++ (≥50: ++++)
5 to 15 µM | CCCC[C@H](NC(=O)[C@H](CC(C)C)NC(=O)[C@@H](NC(=O)[C@H](CCC(=O)O)NC(=O)[C@H](CCC(=O)O)NC(=O)[C@H](CC(=O)O)NC(=O)[C@@H](NC(=O)[C@H](Cc1ccccc1)NC(C)=O)[C@@H](C)CC)C(C)C)C(=O)N[C@@]1(C)CCCC=CCCC[C@@](C)(C(=O)N[C@@H](CCCC)C(=O)N[C@@H](C)C(=O)N[C@@H](CC(C)C)C(=O)N[C@@H](CC(=O)O)C(=O)N[C@@H](CCCNC(=N)N)C(=O)N[C@H](C(N)=O)[C@@H](C)CC)NC(=O)[C@H]([C@@H](C)CC)NC(=O)[C@H](C(C)C)NC(=O)[C@H](C)NC1=O [SP-17] (Ac-FIDEEVL[Nle][S5]AVI[S5][Nle]ALDRI-NH2; staple 9-13) | ++++ (≥50: ++++)
